Data: ChEMBL document CHEMBL5338769, “Discovery of Norisoboldine Analogue III11 as a Novel and Potent Aryl Hydrocarbon Receptor Agonist for the Treatment of Ulcerative Colitis” (J Med Chem, 2023)
The source made the active and inactive calls. No cut-off for these calls is given here.

Key:
[1] = biological target: T1, Aryl hydrocarbon receptor (Mus musculus, UniProt P30561); experiment: Activation of AhR transcription in C57BL/6 mouse naive T cells assessed as increase in CYP1A1 mRNA expression at 3 uM measured after 72 hrs by qRT-PCR analysis relative to control; assay type: cell-based; settings: t cell
T1 sequence (P30561 whole entry): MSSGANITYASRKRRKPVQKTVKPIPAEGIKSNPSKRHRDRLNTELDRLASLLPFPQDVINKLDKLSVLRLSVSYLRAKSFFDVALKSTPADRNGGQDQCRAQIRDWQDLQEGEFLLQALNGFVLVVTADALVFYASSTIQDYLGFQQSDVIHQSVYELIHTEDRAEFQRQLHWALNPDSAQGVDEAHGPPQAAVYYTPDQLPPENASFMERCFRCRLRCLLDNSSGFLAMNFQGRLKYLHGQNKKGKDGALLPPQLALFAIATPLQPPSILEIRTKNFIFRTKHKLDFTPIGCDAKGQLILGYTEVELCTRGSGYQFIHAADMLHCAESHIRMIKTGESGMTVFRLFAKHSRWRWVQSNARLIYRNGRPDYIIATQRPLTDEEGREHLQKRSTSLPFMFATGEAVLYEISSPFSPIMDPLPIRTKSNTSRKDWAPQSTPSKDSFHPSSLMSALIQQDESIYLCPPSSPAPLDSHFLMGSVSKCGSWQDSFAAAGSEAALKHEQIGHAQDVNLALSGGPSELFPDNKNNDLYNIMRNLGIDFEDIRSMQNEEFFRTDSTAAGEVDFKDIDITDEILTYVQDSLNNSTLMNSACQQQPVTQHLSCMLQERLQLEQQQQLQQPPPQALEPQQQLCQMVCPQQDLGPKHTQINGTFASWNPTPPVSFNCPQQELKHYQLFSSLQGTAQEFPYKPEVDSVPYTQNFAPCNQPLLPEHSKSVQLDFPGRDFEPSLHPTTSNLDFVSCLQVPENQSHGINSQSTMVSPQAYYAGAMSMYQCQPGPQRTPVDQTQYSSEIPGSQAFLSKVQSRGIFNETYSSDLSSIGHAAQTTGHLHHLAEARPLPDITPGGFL

EL4 = experiment: Cytotoxicity against mouse EL4 cells assessed as inhibition of cell proliferation incubated for 72 hrs by MTT assay; assay type: functional, cell-based; settings: EL4, 72 h
[2] = biological target: T1, Aryl hydrocarbon receptor; experiment: Activation of AhR transcription in C57BL/6 mouse naive T cells assessed as increase in CYP1A1 mRNA expression at 1 uM by qRT-PCR analysis; assay type: cell-based; settings: t cell
[3] = Induction of cell differentiation in C57BL/6 mouse naive regulatory T cells assessed as increase in cell frequency at 3 uM incubated for 72 hrs by flow cytometric analysis (reference value: 24.9%); assay type: functional
Mus musculus [4] = experiment: Anti-colitis activity in DSS-induced ulcerative colitis C57BL/6 mouse model assessed as CD4+CD25+Foxp3+ Treg cell percentage in spleen at 20 mg/kg, po administered once a day for 10 days by flow cytometric analysis (reference value: 3.3%); assay type: functional; settings: time 10 day
[5] = Oral bioavailability in Sprague-Dawley rat at 30 mg/kg measured upto 1440 min by LC-MS/MS analysis; assay type: ADME, organism-based; settings: in vivo
[6] = biological target: T1, Aryl hydrocarbon receptor; experiment: Activation of AhR transcription in C57BL/6 mouse naive T cells assessed as increase in CYP1A1 mRNA expression by measuring fold change at 10 uM measured after 72 hrs by qRT-PCR analysis relative to control; assay type: cell-based; settings: T-cell, read-out: FC
[7] = MRT in Sprague-Dawley rat at 3 mg/kg, iv measured upto 1440 min by LC-MS/MS analysis; assay type: ADME, organism-based; settings: in vivo
[8] = Unbound drug concentration in rat plasma at 10.67 ug/ml of total concentration measured after 12 hrs by ultrafiltration based HPLC analysis; assay type: ADME, cell-free; settings: dose 10.67 µg/ml
[9] = Unbound drug concentration in rat plasma at 20.13 ug/ml of total concentration measured after 12 hrs by ultrafiltration based HPLC analysis; assay type: ADME, cell-free; settings: dose 20.13 µg/ml
Regulatory T cell [10] = experiment: Induction of cell differentiation in C57BL/6 mouse naive regulatory T cells assessed as increase in […] mRNA level at 3 uM incubated for 72 hrs by qRT-PCR analysis; assay type: functional, cell-based
[11] = Induction of cell differentiation in C57BL/6 mouse naive regulatory T cells assessed as increase in cell frequency at 1 uM incubated for 72 hrs by flow cytometric analysis (reference value: 24.9%); assay type: functional
Mus musculus [12] = experiment: Anti-colitis activity in DSS-induced ulcerative colitis C57BL/6 mouse model assessed as CD4+CD25+Foxp3+ Treg cell percentage in spleen at 10 mg/kg, po administered once a day for 10 days by flow cytometric analysis (reference value: 3.3%); assay type: functional; settings: time 10 day
[13] = Induction of cell differentiation in C57BL/6 mouse naive regulatory T cells assessed as increase in cell frequency at 30 uM incubated for 72 hrs by flow cytometric analysis (reference value: 24.9%); assay type: functional
Mus musculus [14] = experiment: Anti-colitis activity in DSS-induced ulcerative colitis C57BL/6 mouse model assessed as increase in CD4+CD25+Foxp3+ Treg cell ratio in mesenteric lymph nodes at 20 mg/kg, po administered once a day for 10 days by flow cytometric analysis (reference value: 4.5 %); assay type: functional; settings: time 10 day
[15] = AUC(0 to infinity) in Sprague-Dawley rat at 3 mg/kg, iv measured upto 1440 min by LC-MS/MS analysis; assay type: ADME, organism-based; parameters: dose 3 mg/kg, time < 1440 min, route iv; settings: in vivo
[16] = Tmax in Sprague-Dawley rat at 30 mg/kg, po measured upto 1440 min by LC-MS/MS analysis; assay type: ADME, organism-based; settings: in vivo
Regulatory T cell [17] = experiment: Induction of cell differentiation in C57BL/6 mouse naive regulatory T cells at 10 uM incubated for 72 hrs by flow cytometric analysis; assay type: functional, cell-based
Regulatory T cell [18] = experiment: Induction of cell differentiation in C57BL/6 mouse naive regulatory T cells assessed as increase in IL-10 mRNA level at 3 uM incubated for 72 hrs by qRT-PCR analysis; assay type: functional, cell-based
[19] = Apparent oral clearance in Sprague-Dawley rat at 3 mg/kg, iv measured upto 1440 min by LC-MS/MS analysis; assay type: ADME, organism-based; settings: in vivo, 24 h
[20] = biological target: T1, Aryl hydrocarbon receptor; experiment: Activation of AhR transcription in C57BL/6 mouse naive T cells assessed as increase in CYP1A1 mRNA expression at 10 uM measured after 72 hrs by qRT-PCR analysis relative to control; assay type: cell-based; settings: t cell
[21] = Induction of cell differentiation in C57BL/6 mouse naive regulatory T cells assessed as increase in cell frequency at 10 uM incubated for 72 hrs by flow cytometric analysis (reference value: 24.9%); assay type: functional
[22] = MRT in Sprague-Dawley rat at 30 mg/kg, po measured upto 1440 min by LC-MS/MS analysis; assay type: ADME, organism-based; settings: in vivo
[23] = Cmax in Sprague-Dawley rat at 3 mg/kg, iv measured at 120 min by LC-MS/MS analysis; assay type: ADME, organism-based; parameters: time 120 min, dose 3 mg/kg, route iv; settings: in vivo
[24] = Half-life in Sprague-Dawley rat at 3 mg/kg, iv measured upto 1440 min by LC-MS/MS analysis; assay type: ADME, organism-based; settings: in vivo
[25] = Half-life in Sprague-Dawley rat at 30 mg/kg, po measured upto 1440 min by LC-MS/MS analysis; assay type: ADME, organism-based; settings: in vivo
[26] = Cmax in Sprague-Dawley rat at 30 mg/kg, po measured at 120 min by LC-MS/MS analysis; assay type: ADME, organism-based; parameters: dose 30 mg/kg, time 120 min, route po; settings: in vivo
Mus musculus [27] = experiment: Anti-colitis activity in DSS-induced ulcerative colitis C57BL/6 mouse model assessed as increase in CD4+CD25+Foxp3+ Treg cell ratio in mesenteric lymph nodes at 10 mg/kg, po administered once a day for 10 days by flow cytometric analysis (reference value: 4.5 %); assay type: functional; settings: time 10 day
[28] = AUC(0 to infinity) in Sprague-Dawley rat at 30 mg/kg, po measured upto 1440 min by LC-MS/MS analysis; assay type: ADME, organism-based; parameters: time < 1440 min, dose 30 mg/kg, route po; settings: in vivo
[29] = Unbound drug concentration in rat plasma at 37.38 ug/ml of total concentration measured after 12 hrs by ultrafiltration based HPLC analysis; assay type: ADME, cell-free; settings: dose 37.38 µg/ml
Mus musculus [30] = experiment: In vivo activation of AhR in C57BL/6 mouse assessed as increase in CYP1A1 mRNA expression at 10 to 20 mg/kg, po administered once a day for 10 days by qRT-PCR analysis; assay type: functional, organism-based; settings: dose 10-20 mg/kg, time 10.0 day
[31] = Protein binding in rat plasma at 10.67 ug/ml of total concentration measured after 12 hrs by ultrafiltration based HPLC analysis; assay type: ADME, cell-free; settings: at 10.67 µg/mL, read-out: PPB (converted)
[32] = Apparent oral clearance in Sprague-Dawley rat at 30 mg/kg measured upto 1440 min by LC-MS/MS analysis; assay type: ADME, organism-based; settings: in vivo, 24 h
[33] = biological target: T1, Aryl hydrocarbon receptor; experiment: Activation of AhR transcription in C57BL/6 mouse naive T cells assessed as increase in CYP1A1 mRNA expression at 1 to 3 uM measured after 72 hrs by qRT-PCR analysis; assay type: cell-based; settings: t cell, dose 1-3 µM
[34] = biological target: T1, Aryl hydrocarbon receptor; experiment: Activation of AhR transcription in C57BL/6 mouse naive T cells assessed as increase in UGT1A1 mRNA expression at 1 to 3 uM by qRT-PCR analysis; assay type: cell-based; settings: t cell, dose 1-3 µM
[35] = biological target: T1, Aryl hydrocarbon receptor; experiment: Activation of AhR transcription in C57BL/6 mouse naive T cells assessed as increase in CYP1B1 mRNA expression at 1 to 3 uM by qRT-PCR analysis; assay type: cell-based; settings: t cell, dose 1-3 µM
[36] = biological target: T1, Aryl hydrocarbon receptor; experiment: Activation of AhR transcription in C57BL/6 mouse naive T cells assessed as increase in CYP1A1 mRNA expression at 1 to 3 uM by qRT-PCR analysis; assay type: cell-based; settings: t cell, dose 1-3 µM
[37] = biological target: T1, Aryl hydrocarbon receptor; experiment: Activation of AhR transcription in C57BL/6 mouse naive T cells assessed as increase in AhRR mRNA expression at 1 to 3 uM by qRT-PCR analysis; assay type: cell-based; settings: t cell, dose 1-3 µM

COc1cc2c(cc1O)CC1c3c(cc(O)c(OC)c3-2)CCN1C (configuration not stated)
Activity [1]: 222% | IC50 (EL4): 70.1 µM

COc1ccc2c(c1)-c1c(OC)c(OC)cc3c1C(C2)NCC3 (configuration not stated)
Activity [1]: 177% | IC50 (EL4): 20.7 µM

COc1cc2c(cc1O)CC1NCCc3cc(OC)c(OC)c-2c31 (configuration not stated)
Activity [2]: Active | IC50 (EL4): 48.4 µM

COc1cc2c(cc1O)CC1NCCc3cc(OC)c(O)c-2c31 (configuration not stated)
Activity [3]: 26.6% | Activity (Mus musculus [4]): 3.6% | bioavailability [5]: 2.49% | fold induction at 10 µM [6]: 2.1 | MRT [7]: 20.6 min | Cp(f) [8]: 5200 ng/mL | Cp(f) [9]: 10020 ng/mL | Activity (Regulatory T cell [10]): inactive | Activity [11]: 25.4% | Activity (Mus musculus [12]): 3% | Activity [13]: 37.8% | Activity (Mus musculus [14]): 6% | AUC(0-inf) [15]: 112 ng·h/mL | Tmax [16]: 16 min | Activity (Regulatory T cell [17]): Active | Activity (Regulatory T cell [18]): inactive | CL/F [19]: 0 mg/(ng/ml)/min | IC50 (EL4): 80 µM | Activity [20]: 208.3% | Activity [21]: 32% | MRT [22]: 42.2 min | Cmax [23]: 245 ng/mL | half-life [24]: 14.1 min | half-life [25]: 23.3 min | Cmax [26]: 34.1 ng/mL | Activity (Mus musculus [27]): 5.6% | AUC(0-inf) [28]: 27.8 ng·h/mL | Cp(f) [29]: 18360 ng/mL | Activity (Mus musculus [30]): Active | fraction unbound at 12 h, 10.67 ug/ml [31]: 0.488 | CL/F [32]: 0.02 mg/(ng/ml)/min

COc1cc2c3c(c1)-c1ccc(OCc4ccccc4)cc1CC3N(C(=O)OCc1ccccc1)CC2 (configuration not stated)
Activity [33]: Not Active

COc1cc2c3c(c1OC)-c1ccccc1CC3N(C)CC2 (stereo not drawn) [(+/-)-NUCIFERINE]
Activity [34]: Not Active | Activity [35]: Not Active | IC50 (EL4): 35.9 µM | Activity [36]: Not Active | Activity [37]: Not Active

COc1cc2c3c(c1OC)-c1ccc(O)cc1CC3NCC2 (configuration not stated)
Activity [1]: 150.7% | IC50 (EL4): 64.4 µM

COc1cc2c(cc1O)-c1c(OC)c(OC)cc3c1C(C2)NCC3 (configuration not stated)
Activity [34]: Not Active | Activity [35]: Not Active | IC50 (EL4): 36.9 µM | Activity [36]: Not Active | Activity [37]: Not Active

COc1cc2c3c(c1OC)-c1ccccc1CC3NCC2 (configuration not stated) [NORNUCIFERINE]
Activity [2]: Active | IC50 (EL4): 26.2 µM

COc1cc2c(cc1OC)-c1c(OC)c(OC)cc3c1C(C2)NCC3 (configuration not stated)
Activity [34]: Not Active | Activity [35]: Not Active | IC50 (EL4): 13.9 µM | Activity [36]: Not Active | Activity [37]: Not Active
